pIC50: −log10 of the molar value. In brackets after ≈: the same amount, converted by molar mass.
Columns and labels:
Assay type in all cases: cell-based
Mammalian cells = experiment: Toxicity to mammalian cells; settings: after 16 hours of exposure
Protocol: Mammalian cells were treated with Compound #2 as described above.

P. aeruginosa = experiment: MIC susceptibility testing (modified NCCLS)
Protocol: The NCCLS (National Committee for Clinical Laboratory Standards), method to determine MIC's of antimicrobial compounds is modified for high-throughput screening. All stocks of tested compounds are prepared in either water or in DMSO depending on solubility. At the highest concentration, DMSO content should not exceed 0.5%. Briefly, twenty 2-fold serial dilutions of test compounds from the highest concentration is made in a 384-well microtiter plate. […] Bacterial growth is determined by the increase of optical density at 600 nm using a microplate reader (Tecan SpectraFluor Plus).

S. aureus = experiment: MIC susceptibility testing (modified NCCLS)
Protocol: (§1) The NCCLS (National Committee for Clinical Laboratory Standards), method to determine MIC's of antimicrobial compounds is modified for high-throughput screening. All stocks of tested compounds are prepared in either water or in DMSO depending on solubility. At the highest concentration, DMSO content should not exceed 0.5%. Briefly, twenty 2-fold serial dilutions of test compounds from the highest concentration is made in a 384-well microtiter plate. Each well is inoculated with testing bacteria in broth to a final concentration of approximately 1-1.5×10^6 cells/ml. Bacterial growth is determined by the increase of optical density at 600 nm using a microplate reader (Tecan SpectraFluor Plus).

H. influenzae = experiment: MIC susceptibility testing (modified NCCLS)
Protocol: as §1

K. pneumoniae = experiment: MIC susceptibility testing (modified NCCLS)
Protocol: as §1

S. epidermidis = experiment: MIC susceptibility testing (modified NCCLS)
Protocol: as §1

E. coli = experiment: MIC susceptibility testing (modified NCCLS); settings: Table 4, E. coli
Protocol: as §1

E. faecalis = experiment: MIC susceptibility testing (modified NCCLS)
Protocol: as §1

E. aerogenes = experiment: MIC susceptibility testing (modified NCCLS)
Protocol: as §1

E. coli/Tem-1 = experiment: MIC susceptibility testing (modified NCCLS); settings: Table 4, E. coli expressing TEM-1 beta-lactamase
Protocol: as §1, with “Plus). The MIC is defined as the lowest concentration at which bacterial growth (equivalent to visible growth) was inhibited after 16 to 18 hours of incubation at the appropriate temperature required for the bacteria growth.” for “Plus).”
E. coli/TEM—E. coli expressing TEM-1 beta-lactamase; MRSA—Methicillin Resistant S. Aureus; MSSA—Methicillin Sensitive S. Aureus.

## CSCC[C@H](NC=O)C(=O)N[C@@H](CC(C)C)C(=O)Oc1cc(Cl)ccc1Oc1ccc(Cl)cc1Cl [Compound #2]
Mammalian cells
  pIC50: ~4.52
P. aeruginosa; Table 4, P. aeruginosa ATCC 21726, Exp. #1
  MIC: >64 µg/mL
P. aeruginosa; Table 4, P. aeruginosa ATCC 21726, Exp. #2
  MIC: ≧64 μg/ml
P. aeruginosa; Table 4, P. aeruginosa ATCC 29872, Exp. #1
  MIC: >64 µg/mL
P. aeruginosa; Table 4, P. aeruginosa ATCC 29872, Exp. #2
  MIC: ≧64 μg/ml
S. aureus; Table 3, S. aureus ATCC 11632, Exp. #1
  MIC: ≦0.125 μg/ml
S. aureus; Table 3, S. aureus ATCC 11632, Exp. #2
  MIC: ≦0.125 μg/ml
S. aureus; Table 3, S. aureus ATCC 13301, Exp. #1
  MIC: ≦0.125 μg/ml
S. aureus; Table 3, S. aureus ATCC 13301, Exp. #2
  MIC: ≦0.125 μg/ml
S. aureus; Table 3, S. aureus ATCC 14154, Exp. #1
  MIC: ≦0.125 μg/ml
S. aureus; Table 3, S. aureus ATCC 14154, Exp. #2
  MIC: ≦0.125 μg/ml
S. aureus; Table 3, S. aureus ATCC 33591, Exp. #1
  MIC: ≦0.125 μg/ml
S. aureus; Table 3, S. aureus ATCC 33591, Exp. #2
  MIC: ≦0.125 μg/ml
S. aureus; Table 3, S. aureus ATCC 33592, Exp. #1
  MIC: ≦0.125 μg/ml
S. aureus; Table 3, S. aureus ATCC 33592, Exp. #2
  MIC: ≦0.125 μg/ml
S. aureus; Table 3, S. aureus ATCC 33593, Exp. #1
  MIC: ≦0.125 μg/ml
S. aureus; Table 3, S. aureus ATCC 33593, Exp. #2
  MIC: ≦0.125 μg/ml
S. aureus; Table 3, S. aureus ATCC 43300, Exp. #1
  MIC: ≦0.125 μg/ml
S. aureus; Table 3, S. aureus ATCC 43300, Exp. #2
  MIC: ≦0.125 μg/ml
S. aureus; Table 3, S. aureus ATCC 700260, Exp. #1
  MIC: ≦0.125 μg/ml
S. aureus; Table 3, S. aureus ATCC 700260, Exp. #2
  MIC: ≦0.125 μg/ml
S. aureus; Table 3, S. aureus ATCC 700698, Exp. #1
  MIC: ≦0.125 μg/ml
S. aureus; Table 3, S. aureus ATCC 700698, Exp. #2
  MIC: ≦0.125 μg/ml
S. aureus; Table 3, S. aureus ATCC 700699, Exp. #1
  MIC: 16000 ng/mL (≈ 28.5 µM)
S. aureus; Table 3, S. aureus ATCC 700699, Exp. #2
  MIC: 8000 ng/mL (≈ 14.2 µM)
S. aureus; Table 3, S. aureus ATCC 700787, Exp. #1
  MIC: ≦0.125 μg/ml
S. aureus; Table 3, S. aureus ATCC 700787, Exp. #2
  MIC: ≦0.125 μg/ml
S. aureus; Table 3, S. aureus ATCC 700788, Exp. #1
  MIC: ≦0.125 μg/ml
S. aureus; Table 3, S. aureus ATCC 700788, Exp. #2
  MIC: ≦0.125 μg/ml
S. aureus; Table 3, S. aureus ATCC 700789, Exp. #1
  MIC: ≦0.125 μg/ml
S. aureus; Table 3, S. aureus ATCC 700789, Exp. #2
  MIC: ≦0.125 μg/ml
S. aureus; Table 4, MRSA ATCC 700699, Exp. #1
  MIC: 32000 ng/mL (≈ 56.9 µM)
S. aureus; Table 4, MRSA ATCC 700699, Exp. #2
  MIC: 32000 ng/mL (≈ 56.9 µM)
S. aureus; Table 4, MSSA ATCC 11632, Exp. #1
  MIC: 32000 ng/mL (≈ 56.9 µM)
S. aureus; Table 4, MSSA ATCC 11632, Exp. #2
  MIC: 16000 ng/mL (≈ 28.5 µM)
S. aureus; Table 4, MSSA ATCC 33594, Exp. #1
  MIC: ≦0.125 μg/ml
S. aureus; Table 4, MSSA ATCC 33594, Exp. #2
  MIC: ≦0.125 μg/ml
S. aureus; Table 4, MSSA ATCC 700260, Exp. #1
  MIC: ≦0.125 μg/ml
S. aureus; Table 4, MSSA ATCC 700260, Exp. #2
  MIC: 4000 ng/mL (≈ 7.12 µM)
S. aureus; Table 5, MSSA ATCC 11632
  MIC: 0.977 ng/mL (≈ 0.00174 µM)
S. aureus; Table 5, MSSA ATCC 13301
  MIC: 0.015 ng/mL (≈ 2.67e-05 µM)
S. aureus; Table 5, MSSA ATCC 14154
  MIC: 0.977 ng/mL (≈ 0.00174 µM)
S. aureus; Table 5, MSSA ATCC 33591
  MIC: 15.63 ng/mL (≈ 0.0278 µM)
S. aureus; Table 5, MSSA ATCC 33592
  MIC: 0.488 ng/mL (≈ 0.000868 µM)
S. aureus; Table 5, MSSA ATCC 33593
  MIC: 0.488 ng/mL (≈ 0.000868 µM)
S. aureus; Table 5, MSSA ATCC 43300
  MIC: 0.977 ng/mL (≈ 0.00174 µM)
S. aureus; Table 5, MSSA ATCC 700260
  MIC: 0.031 ng/mL (≈ 5.52e-05 µM)
S. aureus; Table 5, MSSA ATCC 700698
  MIC: 3.906 ng/mL (≈ 0.00695 µM)
S. aureus; Table 5, MSSA ATCC 700699
  MIC: ≧4 μg/ml
S. aureus; Table 5, MSSA ATCC 700787
  MIC: 7.813 ng/mL (≈ 0.0139 µM)
S. aureus; Table 5, MSSA ATCC 700788
  MIC: 62.5 ng/mL (≈ 0.111 µM)
S. aureus; Table 5, MSSA ATCC 700789
  MIC: 15.63 ng/mL (≈ 0.0278 µM)
H. influenzae; Table 4, H. influenzae ATCC 33533, Exp. #1
  MIC: 64 µg/mL (≈ 114 µM)
H. influenzae; Table 4, H. influenzae ATCC 33533, Exp. #2
  MIC: ≧64 μg/ml
K. pneumoniae; Table 3, K. pneumoniae ATCC 51503, Exp. #1
  MIC: 8 µg/mL (≈ 14.2 µM)
K. pneumoniae; Table 3, K. pneumoniae ATCC 51503, Exp. #2
  MIC: 8 µg/mL (≈ 14.2 µM)
K. pneumoniae; Table 3, K. pneumoniae ATCC 51504, Exp. #1
  MIC: 1 µg/mL (≈ 1.78 µM)
K. pneumoniae; Table 3, K. pneumoniae ATCC 51504, Exp. #2
  MIC: 2 µg/mL (≈ 3.56 µM)
K. pneumoniae; Table 3, K. pneumoniae ATCC 700721, Exp. #1
  MIC: 2 µg/mL (≈ 3.56 µM)
K. pneumoniae; Table 3, K. pneumoniae ATCC 700721, Exp. #2
  MIC: 2 µg/mL (≈ 3.56 µM)
K. pneumoniae; Table 4, K. pneumoniae ATCC 51503, Exp. #1
  MIC: 4 µg/mL (≈ 7.12 µM)
K. pneumoniae; Table 4, K. pneumoniae ATCC 51503, Exp. #2
  MIC: 8 µg/mL (≈ 14.2 µM)
K. pneumoniae; Table 4, K. pneumoniae ATCC 700721, Exp. #1
  MIC: 4 µg/mL (≈ 7.12 µM)
K. pneumoniae; Table 4, K. pneumoniae ATCC 700721, Exp. #2
  MIC: 8 µg/mL (≈ 14.2 µM)
S. epidermidis; Table 3, S. epidermidis ATCC 27626, Exp. #1
  MIC: ≦0.125 μg/ml
S. epidermidis; Table 3, S. epidermidis ATCC 27626, Exp. #2
  MIC: ≦0.125 μg/ml
S. epidermidis; Table 3, S. epidermidis ATCC 700565, Exp. #1
  MIC: 2 µg/mL (≈ 3.56 µM)
S. epidermidis; Table 3, S. epidermidis ATCC 700565, Exp. #2
  MIC: 2 µg/mL (≈ 3.56 µM)
S. epidermidis; Table 3, S. epidermidis ATCC 700566, Exp. #1
  MIC: ≦0.125 μg/ml
S. epidermidis; Table 3, S. epidermidis ATCC 700566, Exp. #2
  MIC: ≦0.125 μg/ml
S. epidermidis; Table 3, S. epidermidis ATCC 700578, Exp. #1
  MIC: 0.5 µg/mL (≈ 0.89 µM)
S. epidermidis; Table 3, S. epidermidis ATCC 700578, Exp. #2
  MIC: 0.25 µg/mL (≈ 0.445 µM)
S. epidermidis; Table 3, S. epidermidis ATCC 700583, Exp. #1
  MIC: ≦0.125 μg/ml
S. epidermidis; Table 3, S. epidermidis ATCC 700583, Exp. #2
  MIC: ≦0.125 μg/ml
E. coli; Exp. #1
  MIC: 16 µg/mL (≈ 28.5 µM)
E. coli; Exp. #2
  MIC: 16 µg/mL (≈ 28.5 µM)
E. faecalis; Table 4, E. faecalis ATCC 49757, Exp. #1
  MIC: 64 µg/mL (≈ 114 µM)
E. faecalis; Table 4, E. faecalis ATCC 49757, Exp. #2
  MIC: 32 µg/mL (≈ 56.9 µM)
E. faecalis; Table 4, E. faecalis ATCC 700802, Exp. #1
  MIC: 32 µg/mL (≈ 56.9 µM)
E. faecalis; Table 4, E. faecalis ATCC 700802, Exp. #2
  MIC: 32 µg/mL (≈ 56.9 µM)
E. aerogenes; Table 3, E. aerogenes ATCC 13048, Exp. #1
  MIC: 1 µg/mL (≈ 1.78 µM)
E. aerogenes; Table 3, E. aerogenes ATCC 13048, Exp. #2
  MIC: 1 µg/mL (≈ 1.78 µM)
E. aerogenes; Table 3, E. aerogenes ATCC 29009, Exp. #1
  MIC: 0.25 µg/mL (≈ 0.445 µM)
E. aerogenes; Table 3, E. aerogenes ATCC 29009, Exp. #2
  MIC: ≦0.125 μg/ml
E. aerogenes; Table 3, E. aerogenes ATCC 29751, Exp. #1
  MIC: 2 µg/mL (≈ 3.56 µM)
E. aerogenes; Table 3, E. aerogenes ATCC 29751, Exp. #2
  MIC: 1 µg/mL (≈ 1.78 µM)
E. aerogenes; Table 3, E. aerogenes ATCC 35028, Exp. #1
  MIC: 4 µg/mL (≈ 7.12 µM)
E. aerogenes; Table 3, E. aerogenes ATCC 35028, Exp. #2
  MIC: 2 µg/mL (≈ 3.56 µM)
E. aerogenes; Table 4, E. aerogenes ATCC 35028, Exp. #1
  MIC: 32 µg/mL (≈ 56.9 µM)
E. aerogenes; Table 4, E. aerogenes ATCC 35028, Exp. #2
  MIC: 16 µg/mL (≈ 28.5 µM)
E. coli/Tem-1; Exp. #1
  MIC: 16 µg/mL (≈ 28.5 µM)
E. coli/Tem-1; Exp. #2
  MIC: 16 µg/mL (≈ 28.5 µM)

Reference: US20050096254A1, “Peptide deformylase activated prodrugs” (priority 2002, published 2005)
